Laboratory results as given in PMC6911004, “Fragment-based screening identifies molecules targeting the substrate-binding ankyrin repeat domains of tankyrase” (Scientific Reports, 2019).

How the values were obtained:
Format in all cases: binding
TNKS2 ARC1 (20–178) = biological target: T1, TNKS2 ARC1 (20–178) (Homo sapiens, UniProt Q9H2K2); assay: T2 relaxation-edited ligand-observed NMR assay
T1 construct: TNKS2 ARC1 (20–178); His6-GST; made in house; host or cells: E. coli
Description: The anticipated functional redundancy between ARCs and the existence of two tankyrase paralogues will require efficient substrate binding antagonists to ideally bind all TBM-binding ARCs of both TNKS and TNKS2. […] We tested binding of compound 9 to all TNKS and TNKS2 ARCs using the relaxation-edited NMR assay (Fig. 4E, Table 3). Compound 9 bound all ARCs, with the exception of TNKS2 ARC1. Given the invariant residue infrastructure of the peptide-binding pocket in ARC1 of TNKS and TNKS2, this observation is difficult to reconcile with available structural information. […]
Fragments were dispensed in duplicate into a 384-well plate (250 nL, 100 mM stock in DMSO). […] Solutions were transferred to 1.7 mm NMR tubes using a Gilson liquid handling system. ^1H NMR spectra were recorded, with the DMSO and water signals dampened. […] The average integral for all peaks between 6.0–10.0 ppm was calculated, and the difference between compound-only and compound-plus-protein samples was compared. […] For competitive experiments, 3BP2 16-mer peptide (100 μM) was added, and the spectra were recorded and processed as above. The variability in signal reduction in the relaxation-edited experiment was previously determined as approximately ± 10% (Liu et al., unpublished observations).

[1] = biological target: T2, TNKS2 ARC4 arginine cradle (WFE591/593/598AAA) (Homo sapiens, UniProt Q9H2K2, E598A/F593A/W591A); assay: WaterLOGSY NMR with mutant ARC
T2 construct: The cell was filled with TNKS2 ARC4 (488–649); His6-GST; made in house; host or cells: E. coli
Description: (§1) We used three previously designed TNKS2 ARC4 mutant variants[4] to explore potential binding determinants for fragment 9. A WFE591/593/598AAA triple-mutation abrogates three key residues in the “arginine cradle”; YY536/569AA truncates two tyrosine residues that form the “glycine sandwich”, and L560W introduces a bulky residue into the “central patch” that sterically clashes with the TBM peptide (see Fig. 5A,B for locations of the mutated residues). We tested binding of compound 9 to the wild-type and mutant ARCs by ligand-observed NMR, using the relaxation-edited assay (Fig. 5C, Table 4). […] Binding was impaired but not abolished for the “central patch” mutant variant (L560W).
(§2) Fragments were dispensed in duplicate into a 384-well plate (250 nL, 100 mM stock in DMSO). Wells were backfilled with DMSO (2.25 μL). Tankyrase ARC protein (47.5 μL in 25 mM HEPES-NaOH pH7.5, 100 mM NaCl, 2 mM TCEP, 10% D2O; 20 μM final protein concentration in the assay) was added to the samples containing protein; buffer only (47.5 μL) was added to the compound-only samples. Solutions were transferred to 1.7 mm NMR tubes using a Gilson liquid handling system. ^1H NMR spectra were recorded, with the DMSO signal dampened. The bulk water signal at 4.7 ppm was selectively inverted. Data were processed using Bruker Topspin 3.14[66].

[2] = biological target: T3, TNKS2 ARC4 aromatic glycine sandwich (YY536/569AA) (Homo sapiens, UniProt Q9H2K2, Y536A/Y569A); assay: WaterLOGSY NMR with mutant ARC
T3 construct: TNKS2 ARC4 (488–649); His6-GST; made in house; host or cells: E. coli BL21-CodonPlus (DE3)-RIL
Description: as §1, §2

[3] = biological target: T4, TNKS2 ARC4 central patch (L560W) (Homo sapiens, UniProt Q9H2K2, L560W); assay: WaterLOGSY NMR with mutant ARC
T4 construct: TNKS2 ARC4 (488–649); His6-GST; made in house; host or cells: E. coli BL21-CodonPlus (DE3)-RIL
Description: as §1, §2

T2 relaxation-edited: reduction of signal integrals (TNKS2 ARC1 (20–178)): 0%
Compound: O=C(NCc1ccco1)c1ccc2nccnc2c1 [compound 9]
waterLOGSY [1]: negative NOE
waterLOGSY [2]: positive NOE
waterLOGSY [3]: positive NOE
